Drawing on article PMC4900628, “Critical Evaluation of P2X7 Receptor Antagonists in Selected Seizure Models” (PLoS ONE, 2016), this text covers IC50 for 3 molecules.

Structures are written as SMILES. Where “and” joins values, the source holds several entries; their conditions need not be identical. Equal values may be shown once.

Assay [1] has as its target T1, human P2X7R (Homo sapiens, UniProt Q99572).
T1 construct: expressed in transfected cells
T1 sequence (Q99572 1-595): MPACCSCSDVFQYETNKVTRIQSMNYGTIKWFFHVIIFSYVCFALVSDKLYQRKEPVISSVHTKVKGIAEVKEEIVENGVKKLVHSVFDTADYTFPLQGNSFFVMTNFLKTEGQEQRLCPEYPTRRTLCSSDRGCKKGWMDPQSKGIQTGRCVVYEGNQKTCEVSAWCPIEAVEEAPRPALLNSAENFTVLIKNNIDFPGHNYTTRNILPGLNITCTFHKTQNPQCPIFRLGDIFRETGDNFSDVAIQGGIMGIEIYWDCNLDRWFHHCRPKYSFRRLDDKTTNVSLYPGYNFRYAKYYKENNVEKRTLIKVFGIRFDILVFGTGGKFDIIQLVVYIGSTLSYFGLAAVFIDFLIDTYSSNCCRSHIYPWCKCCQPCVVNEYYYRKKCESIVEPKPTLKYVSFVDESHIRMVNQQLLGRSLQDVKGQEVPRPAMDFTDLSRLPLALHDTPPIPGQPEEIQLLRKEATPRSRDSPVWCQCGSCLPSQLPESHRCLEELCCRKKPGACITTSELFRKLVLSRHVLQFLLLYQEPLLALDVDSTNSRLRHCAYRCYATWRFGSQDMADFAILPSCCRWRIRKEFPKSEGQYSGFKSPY
Nature of the assay: fluorometric Ca2+ assay (ATP-induced [Ca2+]i response) in HEKhP2X7 cells. In kind it is cell-based. As to conditions: fluo-4, 1 mM ATP, read-out: Potency IC50 ± SEM, Human P2X7R. As to the method:
(§1) Cells were grown in a humidified incubator at 37°C in an atmosphere supplemented with 5% CO2. […] HEK293mP2X7 were cultured in DMEM under similar conditions as described above, but containing 100 μg/ml zeocin (Invitrogen). […] Expression of the transgene was induced by supplementing the medium with 1 μg/ml tetracycline (Sigma-Aldrich, Taufkirchen, Germany) 24 h prior to the experiments. All fluorometric Ca^2+ assays in cell suspensions were performed in 384-microwell plates (Corning, No. 3655, Lowell, MA, USA) with a fluorescence-imaging microplate reader (POLARstar Omega, BMG Labtech, Offenburg, Germany) (for details, see [61, 68]). […] Microwell plates were repetitively scanned every 16 s in the fast scanning mode of the device. […] Data were normalized to the baseline values before ATP application (F/F0). […] ATP-solution was freshly prepared in Mg^2+-free HBS solution and adjusted to pH 7.4. Aliquots of stock solutions were stored at -20°C and freshly diluted with the appropriate HBS solution. […] Results are expressed as mean ± SEM. […] In the PTZ-T, the number of animals in the group with clonic seizures and the latency time were analysed using Fisher's exact probability test and the Mann-Whitney rank sum test, respectively. For multiple comparisons of the latency time a one-way ANOVA with the Holm-Sidak post hoc test was used. The influence of AFC on the plasma and brain concentrations of the antiepileptic drugs was statistical compared using the same procedure. In the PTZ-kindling model, the mean seizure stage within a group was calculated in relation to the number of PTZ-injections. Statistical comparison between vehicle- and compound-treated groups in this model was performed with two-way repeated measures ANOVA, followed by the Holm-Sidak post hoc test. […] In fully kindled rats, the calculated mean seizure stage within a group after vehicle- and compound-treatment were compared using a paired t-test. P < 0.05 was the accepted minimum level of significance.

The target of assay [2] is T2, mouse P2X7R (Mus musculus, UniProt Q9Z1M0).
T2 construct: expressed in transfected cells
T2 sequence (Q9Z1M0 1-595): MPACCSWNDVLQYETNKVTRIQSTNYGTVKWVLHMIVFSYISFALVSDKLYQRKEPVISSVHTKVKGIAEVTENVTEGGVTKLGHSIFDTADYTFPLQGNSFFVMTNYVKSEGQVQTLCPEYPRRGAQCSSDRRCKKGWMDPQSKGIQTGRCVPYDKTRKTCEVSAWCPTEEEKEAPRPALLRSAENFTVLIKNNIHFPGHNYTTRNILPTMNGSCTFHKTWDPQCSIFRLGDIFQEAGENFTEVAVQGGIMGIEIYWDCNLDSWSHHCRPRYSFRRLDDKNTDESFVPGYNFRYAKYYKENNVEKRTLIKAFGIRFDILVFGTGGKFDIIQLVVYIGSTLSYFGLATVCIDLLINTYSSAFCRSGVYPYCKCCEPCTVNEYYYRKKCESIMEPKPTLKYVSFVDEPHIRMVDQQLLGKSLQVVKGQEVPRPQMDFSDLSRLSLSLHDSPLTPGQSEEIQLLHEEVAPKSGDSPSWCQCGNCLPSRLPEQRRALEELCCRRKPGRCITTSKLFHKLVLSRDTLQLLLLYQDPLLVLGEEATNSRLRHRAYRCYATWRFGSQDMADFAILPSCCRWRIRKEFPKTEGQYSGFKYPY
Nature of the assay: fluorometric Ca2+ assay (ATP-induced [Ca2+]i response) in HEKmP2X7 cells. It is filed as cell-based. The settings on record: fluo-4, 1 mM ATP, read-out: Potency IC50 ± SEM, Mouse P2X7R. As to the method: as §1

In the case of `CCOc1ccc(Nc2ccc(/C(=C3C=C/C(=[N+](/CC)Cc4cccc(S(=O)(=O)[O-])c4)C=C/3C)c3ccc(N(CC)Cc4cccc(S(=O)(=O)O)c4)cc3C)cc2)cc1` [Brilliant Blue G], the IC50 in assay [1] was 980 ± 70 nM; in assay [2] it was 530 ± 150 nM.
In the case of `O=C(NCC1(N2CCN(c3ccccc3)CC2)CCOCC1)c1cccnc1Sc1ccccc1` [JNJ-47965567, N-[[4-(4-phenyl-piperazin-1-yl)tetrahydro-2H-pyran-4-yl]-methyl]-2-(phenyl-thio) nicotinamide], the values for the IC50 in assay [1] and in assay [2] were 5 ± 0.5 nM and 10 ± 1 nM, respectively.
For `Cc1c(S(=O)(=O)[O-])oc2c1C(=O)C(=O)c1c-2ccc2c1CCCC2(C)C.[Na+]` [Tanshinone TIIAS, tanshinone IIS sulfonic sodium], the IC50 was 300 nM and 310 nM in assay [1]; not below 6000 nM in assay [2].

In general, IC50 refers to the concentration needed to halve the response being measured.
